From article PMC8451604, “Rational formulation engineering of fraxinellone utilizing 6-O-α-D-maltosyl-β-cyclodextrin for enhanced oral bioavailability and hepatic fibrosis therapy” (Drug Delivery, 2021) come the findings set out here.

Data set [1] is described as follows: Oral bioavailability / pharmacokinetic study. The settings on record: male, Wistar, rat, in vivo. Details: species or system Male Wistar rats. Here is the method: Pharmacokinetic studies were conducted in Male Wistar rats (180–220 g) supplied by the Center of laboratory animals, Zhengzhou University. The Use Committee of Zhengzhou University (IRB0000861) approved the experimental protocol. In addition, all animal experiments were conducted according to the Guidelines of Animal Experimentation of the Laboratory Animal Center. Rats were acclimatized before experiments and provided free access to food and water.
Rats divided into five groups at random (n = 5) were dosed with the following formulations: intravenous administration of Frax ([…]) or orally given Frax suspension (150 mg/kg) or SBE-β-CD-Frax, HP-β-CD-Frax, and G2-β-CD-Frax (150 mg/kg), respectively. Blood (0.4 mL) was obtained by orbital sinus collection at 0.17, 0.25, 0.75, 1, 1.5, 2, 4, 6, 8, and 10 h post-administration. To determine Frax concentration in plasma, 200 μL methanol, 100 μL acetonitrile, and 20 μL 5% hydrochloric acid were added to rat plasma (100 μL) gradually. Following vortexing and centrifugation (4024.8 g, 10 min), the supernatant was collected, dried by air blowing at room temperature, and reconstituted with 150 μL of the mobile phase. The samples were sonicated and vortexed until homogeneity. After centrifugation, the supernatant (50 μL) was aspirated and injected into HPLC. The standard curve encompassed a linear range of 0.05–10 μg/mL and was used to calculate Frax concentration in plasma. Pharmacokinetic parameters were calculated using DAS software version 3.0 and reported as mean ± standard deviation. The oral absolute and relative bioavailability (Fa and Fr) were calculated using the following Equations (3) and (4): (3) Fa(%)=AUC^testDose^i.v/AUC^i.vDose^test (4) Fr(%)=AUCtest/AUCreference where AUC is the area under the pharmacokinetic curves

Data set [2] in a line: Solubility of Frax in various solubilizers (50% solution). Format: physicochemical. The settings on record: 37 °C. Here is the method: Excess Frax was added into Solutol HS 15, Tween 80, PEG 400, Transcutol P, β-CD, SBE-β-CD, HP-β-CD, and G2-β-CD solution (50%), respectively. The samples were vortexed followed by incubation in a shaker (120 rpm, 37 °C) for 72 h. After the process, the samples were centrifuged to separate the supernatant containing dissolved Frax. After suitable dilution and filtration, Frax concentration in the supernatant was analyzed by the HPLC method.

For a further data set, the system named is Caco-2 cells. In words: Cytotoxicity in Caco-2 cells (MTT assay). In kind it is cell-based. The following applies: Caco-2, concentration increased to 200 μg/mL. The procedure: Cytotoxicity effects and cellular uptake ability of Frax, CDs, and CDs-Frax complexes were examined using Caco-2 cells. […] Each CD solution was also used to determine whether the cell toxicity was caused by Frax or CDs. For cellular uptake studies, Caco-2 cells were treated with Frax and CDs-Frax (100 μg/mL) for 0.5, 1, and 2 h, respectively. For P-gp inhibition evaluation, the cells were pretreated with verapamil at a concentration of 100 μg/mL and further treated with each drug or formulation. Thereafter, the cells were washed and replenished with fresh PBS (300 μL). The cell lysate was prepared by three cycles of freeze-thaw. Protein concentration in the samples was quantified by the BCA kit while the Frax concentration was determined by HPLC.

Data set [3] can be described thus: Stability of Frax in homogenates of gastrointestinal segments. The settings on record: rat GI segment homogenates, 37 °C. Format: in vitro ADME, rats. Here is the method: GI segments (the stomach, duodenum, jejunum, ileum, and colon) were immediately isolated after the rats were sacrificed. Thereafter, the mucosa of each segment was homogenized and centrifuged following gently scraping. The supernatant was separated and subjected to BCA protein quantitative kit to adjust the final protein concentration to 1 mg/mL. DMSO solution of Frax (5 mg/mL) was added in the homogenate to achieve a final drug concentration of 20 μg/mL. After incubation at 37 °C for predetermined durations, samples were immediately precipitated by methanol, centrifuged, and injected into HPLC to measure the Frax concentration. The drug concentration measured before the incubation was set to 100%.

In brackets after ≈: the same amount, converted by molar mass.

Consider `CC1=C2C(=O)O[C@@H](c3ccoc3)[C@]2(C)CCC1` [Frax, Fraxinellone], for which the bioavailability (commonly the share of a dose that reaches the circulation, judged against a reference dose that is usually intravenous) in data set [1] stood at 0.5%. Also, in data set [1] (iv, 10 mg/kg), the AUC(0-inf) (as a rule, the area under the concentration-time curve extrapolated to infinity) amounted to 11.8 ± 1.43 µg·h/mL. Besides, in data set [1] (po, 150 mg/kg), the AUC(0-inf) was 0.97 ± 0.23 µg·h/mL, the highest level (Cmax) was 0.49 ± 0.29 µg/mL and the time of peak concentration (Tmax) (usually the time at which the peak concentration occurs) was 1 ± 0.35 h. The solubility (commonly the concentration that dissolves in the medium under given conditions) at 72 h in data set [2] (50% (w/v) G2-β-CD solution in water) was 12.7 mg/mL (≈ 54.8 mM). The “Frax solubility in G2-β-CD solution relative to water” value in data set [2] (50% (w/v) G2-β-CD solution vs water) was 160 times. The “cytotoxicity (in words)” value with Caco-2 cells is “marked cell death”. For the same compound, in data set [3], the “degradation in GI homogenates” value is “negligible degradation”.
